According to patent US20230416199A1, “INHIBITORS OF AMINO ACID TRANSPORT” (ICAHN SCHOOL OF MEDICINE AT MOUNT SINAI, priority 2020, published 2023):

Key:
Format in all cases: cell-based
hASCT1 = target: T1, hASCT1 (Homo sapiens, UniProt P43007); assay: Electrophysiology (whole-cell current recording) of transfected HEK293 cells, hASCT1; conditions: apparent Ki in the absence of substrate, HEK293, mean ± SD; read-out: Ki hASCT1
T1 construct: expressed in transfected cells; host or cells: HEK293 (ATCC CRL-11268), transient transfection
T1 sequence (P43007 1-532): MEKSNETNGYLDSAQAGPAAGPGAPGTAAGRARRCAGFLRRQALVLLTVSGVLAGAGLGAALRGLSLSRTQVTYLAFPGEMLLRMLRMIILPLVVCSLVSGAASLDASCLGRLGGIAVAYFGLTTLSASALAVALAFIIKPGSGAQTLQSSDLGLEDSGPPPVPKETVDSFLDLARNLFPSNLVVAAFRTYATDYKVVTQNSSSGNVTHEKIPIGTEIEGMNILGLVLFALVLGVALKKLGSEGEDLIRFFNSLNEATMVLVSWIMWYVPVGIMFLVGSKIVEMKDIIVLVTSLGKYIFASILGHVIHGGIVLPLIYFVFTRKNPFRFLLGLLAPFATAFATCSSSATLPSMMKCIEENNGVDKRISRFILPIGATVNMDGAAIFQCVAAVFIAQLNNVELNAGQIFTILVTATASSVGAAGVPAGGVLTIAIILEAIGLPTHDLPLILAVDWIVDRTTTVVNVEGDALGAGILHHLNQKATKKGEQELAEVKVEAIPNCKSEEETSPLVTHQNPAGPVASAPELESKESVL
Protocol: (§1) Human embryonic kidney 293 (HEK293, ATCC CRL-11268) cells were cultured in DMEM media supplemented with 10% (v v) fetal bovine serum (FBS), 2 mM glutamine, 1% penicillin streptomycin solution, 1 mM sodium pyruvate and non-essential amino acids. Cells were maintained at 37° C. in a fully humidified atmosphere containing 5% CO2. rASCT2, hASCT2, hASCT1, EAAT1, EAAT2, EAAC1, EAAT5 and YFP complementary DNAs were each used to transiently transfect HEK293 using POLYPLUS Jet-prime transfection reagent. Cells were analyzed using electrophysiological techniques 24-40 hours after transfection.
(§2) Stock solutions of inhibitor was prepared in dimethyl sulfoxide (DMSO) up to 100 mM. Dilutions to working concentrations were made using external buffer. […] For rASCT2, hASCT2 and hASCT1, external buffer contained 140 mM NaCl, 2 mM MgCl2, 2 mM CaCl2), and 10 mM HEPES, pH 7.40 while internal pipette solution comprised of 130 mM NaSCN, 2 mM MgCl2, 10 mM EGTA, 10 mM HEPES and 10 mM alanine, pH 7.40. For specificity experiments with EAAT1, EAAT2, EAAC1 and EAAT5, internal solution contained 10 mM glutamate instead of alanine. Compounds were applied to HEK293 cells expressing DNA of interest suspended from a current recording electrode in whole cell configuration through a rapid solution exchange device. Cells are immersed in external buffer bath used to dissolve the inhibitors. The open pipette resistance was between 3 and 6 MΩ. Series resistance was not compensated in these experiments due to relatively small currents. Currents traces were recorded using an Adams and List EPC7 amplifier and digitized using a Molecular Devices Digidata A/D converter.
(§3) Linear and nonlinear curve fitting of the experimental data were analyzed using MicroCal Origin software. Nonlinear dose-response relationships were fitted with a Michaelis-Menten-like equation to obtain apparent Ki values in the absence of substrate (see TABLE 2 for Ki values). The figures show representative current traces and dose-response curves for hACST2 and rASCT2, used to obtain Ki values in TABLE 2 for compound SN 40. At least four experiments were performed with at least three different cells. Error bars in all graphs, e.g., in FIG. 1B and FIG. 1C and tables (Ki values) represent mean±SD.

EAAT5 = target: T2, EAAT5 (Homo sapiens, UniProt O00341); assay: Electrophysiology specificity experiment in transfected HEK293 cells, EAAT5; conditions: apparent Ki, HEK293, internal solution 10 mM glutamate, mean ± SD
T2 construct: expressed in transfected cells; host or cells: HEK293 (ATCC CRL-11268), transient transfection
T2 sequence (O00341 whole entry, species assumed): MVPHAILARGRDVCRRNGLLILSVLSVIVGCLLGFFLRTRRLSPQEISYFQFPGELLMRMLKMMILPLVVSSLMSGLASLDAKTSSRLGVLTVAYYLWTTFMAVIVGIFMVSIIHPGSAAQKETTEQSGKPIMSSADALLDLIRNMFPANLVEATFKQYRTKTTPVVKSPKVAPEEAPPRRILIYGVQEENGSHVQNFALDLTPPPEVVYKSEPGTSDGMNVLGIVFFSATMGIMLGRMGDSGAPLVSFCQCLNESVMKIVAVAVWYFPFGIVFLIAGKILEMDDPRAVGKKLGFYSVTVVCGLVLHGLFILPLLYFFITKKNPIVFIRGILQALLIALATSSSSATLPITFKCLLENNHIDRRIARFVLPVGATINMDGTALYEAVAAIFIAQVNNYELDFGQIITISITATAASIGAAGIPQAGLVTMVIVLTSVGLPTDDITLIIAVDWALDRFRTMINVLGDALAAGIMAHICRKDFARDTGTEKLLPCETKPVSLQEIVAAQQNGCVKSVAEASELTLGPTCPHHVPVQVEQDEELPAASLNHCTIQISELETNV
Protocol: as §1, §2, §3

EAAT2 = target: T3, EAAT2 (Homo sapiens, UniProt P43004); assay: Electrophysiology specificity experiment in transfected HEK293 cells, EAAT2; conditions: apparent Ki, HEK293, internal solution 10 mM glutamate, mean ± SD; read-out: Ki EAAT2
T3 construct: expressed in transfected cells; host or cells: HEK293 (ATCC CRL-11268), transient transfection
T3 sequence (P43004 whole entry, species assumed): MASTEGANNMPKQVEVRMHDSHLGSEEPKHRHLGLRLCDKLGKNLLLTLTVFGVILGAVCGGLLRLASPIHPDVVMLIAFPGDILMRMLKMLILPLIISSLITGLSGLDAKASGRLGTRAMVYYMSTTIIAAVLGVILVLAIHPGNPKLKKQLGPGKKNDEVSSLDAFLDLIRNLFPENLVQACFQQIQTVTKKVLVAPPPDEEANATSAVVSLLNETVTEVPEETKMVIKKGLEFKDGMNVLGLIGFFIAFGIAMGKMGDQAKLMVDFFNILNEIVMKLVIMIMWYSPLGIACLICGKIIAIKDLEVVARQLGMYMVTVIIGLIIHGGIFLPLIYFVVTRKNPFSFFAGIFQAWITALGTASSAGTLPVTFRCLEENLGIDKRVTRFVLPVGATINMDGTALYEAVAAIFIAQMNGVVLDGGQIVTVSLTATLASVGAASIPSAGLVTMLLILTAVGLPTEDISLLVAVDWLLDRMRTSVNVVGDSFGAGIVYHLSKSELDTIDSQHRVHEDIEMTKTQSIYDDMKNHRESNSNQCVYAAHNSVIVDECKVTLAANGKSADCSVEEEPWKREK
Protocol: as §1, §2, §3

EAAT1 = target: T4, EAAT1 (Homo sapiens, UniProt P43003); assay: Electrophysiology specificity experiment in transfected HEK293 cells, EAAT1; conditions: apparent Ki, HEK293, internal solution 10 mM glutamate, mean ± SD
T4 construct: expressed in transfected cells; host or cells: HEK293 (ATCC CRL-11268), transient transfection
T4 sequence (P43003 whole entry, species assumed): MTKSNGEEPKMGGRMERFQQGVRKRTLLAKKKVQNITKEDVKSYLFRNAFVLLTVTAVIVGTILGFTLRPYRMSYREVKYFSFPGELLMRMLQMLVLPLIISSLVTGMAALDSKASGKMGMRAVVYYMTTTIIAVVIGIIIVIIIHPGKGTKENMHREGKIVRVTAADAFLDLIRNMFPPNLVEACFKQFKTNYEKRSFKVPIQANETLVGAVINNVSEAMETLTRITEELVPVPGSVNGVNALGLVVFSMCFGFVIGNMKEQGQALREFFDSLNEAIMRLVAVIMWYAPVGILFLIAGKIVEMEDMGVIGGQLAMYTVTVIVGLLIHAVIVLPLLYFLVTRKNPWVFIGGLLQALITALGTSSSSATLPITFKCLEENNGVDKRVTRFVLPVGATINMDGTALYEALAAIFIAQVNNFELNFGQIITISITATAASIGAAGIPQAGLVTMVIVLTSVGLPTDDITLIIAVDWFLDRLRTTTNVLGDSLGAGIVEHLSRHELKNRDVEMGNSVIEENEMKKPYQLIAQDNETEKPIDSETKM
Protocol: as §1, §2, §3

EAAC1 = target: T5, EAAC1 (UniProt P51907); assay: Electrophysiology specificity experiment in transfected HEK293 cells, EAAC1; conditions: apparent Ki, HEK293, internal solution 10 mM glutamate, mean ± SD
T5 construct: Ki EAAC1; other: apparent Ki, HEK293, internal solution 10 mM glutamate, mean ± SD
T5 sequence (P51907 1-523): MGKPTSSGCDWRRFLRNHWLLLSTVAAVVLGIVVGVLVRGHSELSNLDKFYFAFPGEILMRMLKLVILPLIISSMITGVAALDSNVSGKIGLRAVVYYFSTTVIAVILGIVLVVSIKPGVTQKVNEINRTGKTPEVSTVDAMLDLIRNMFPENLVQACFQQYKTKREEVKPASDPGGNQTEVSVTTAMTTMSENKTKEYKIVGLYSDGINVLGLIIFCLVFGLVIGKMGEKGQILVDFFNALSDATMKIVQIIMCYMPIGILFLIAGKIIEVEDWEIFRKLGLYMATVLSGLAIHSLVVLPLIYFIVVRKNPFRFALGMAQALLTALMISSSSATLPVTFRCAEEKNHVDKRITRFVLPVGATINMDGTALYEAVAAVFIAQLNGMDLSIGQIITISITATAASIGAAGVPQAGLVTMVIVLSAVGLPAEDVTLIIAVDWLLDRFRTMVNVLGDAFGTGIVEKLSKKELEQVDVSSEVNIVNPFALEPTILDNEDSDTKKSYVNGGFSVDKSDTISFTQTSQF
Protocol: Cells were maintained at 37° C. in a fully humidified atmosphere containing 5% CO2. rASCT2, hASCT2, hASCT1, EAAT1, EAAT2, EAAC1, EAAT5 and YFP complementary DNAs were each used to transiently transfect HEK293 using POLYPLUS Jet-prime transfection reagent. Cells were analyzed using electrophysiological techniques 24-40 hours after transfection.
as §2
as §3, with “The figures show representative current traces and dose-response curves for hACST2 and rASCT2, used to obtain Ki values in TABLE 2 for compound SN 40.” left out

Ki (hASCT1) [nM] | Ki (EAAT5) [nM] | Ki (EAAT2) [nM] | Ki (EAAT1) [nM] | Ki (EAAC1) [nM] | SMILES
2770 ± 100 | 2220 ± 500 | 7250 ± 1500 | 3700 ± 200 | 7230 ± 1400 | O=C(O[C@@H]1CN[C@H](C(=O)O)C1)c1ccc(-c2ccccc2)cc1 [SN 05]
900 ± 100 | 2400 ± 700 | 1290 ± 300 | 400 ± 100 | 690 ± 100 | O=C(O[C@@H]1CN[C@H](C(=O)O)C1)c1ccc(-c2ccc(F)cc2)cc1 [SN 08]
440 ± 100 | 1090 ± 200 | 970 ± 100 | 1000 ± 300 | 1250 ± 200 | O=C(O[C@@H]1CN[C@H](C(=O)O)C1)c1ccc(-c2ccc(C(F)(F)F)cc2)cc1 [SN 09]
1330 ± 300 | 2500 ± 900 | 1300 ± 100 | 1000 ± 100 | 1990 ± 400 | Cc1ccccc1-c1ccc(C(=O)O[C@@H]2CN[C@H](C(=O)O)C2)cc1 [SN 10]
8200 ± 800 | 1170 ± 100 | 3140 ± 500 | 4750 ± 300 | 950 ± 200 | Cc1ccccc1-c1ccc(C(=O)O[C@@H]2CN[C@H](C(=O)O)C2)cc1C [SN 11]
4370 ± 800 | – | 7950 ± 1100 | 10200 ± 2500 | 14200 ± 700 | O=C(O[C@@H]1CN[C@H](C(=O)O)C1)c1ccc(-c2ccccc2)nc1 [SN 19]
11600 ± 1800 | 12300 ± 3200 | 11000 ± 1300 | 9570 ± 1600 | 12300 ± 1900 | N[C@@H](COC(=O)c1ccc(NC(=O)c2ccccc2)cc1)C(=O)O [SN 25]
2820 ± 100 | 1410 ± 300 | 2090 ± 500 | 930 ± 100 | 1270 ± 200 | O=C(O)[C@@H]1C[C@H](OCc2ccc(-c3ccccc3)cc2)CN1 [SN 39]
